In patent US20200289474A1, “METHODS OF TREATING PAIN WITH A THIAZOLINE ANTI-HYPERALGESIC” (priority 2019, published 2020):
Entries after “also recorded” stand apart in the source; their conditions may differ.

Tests used:
[1] = dog single oral dose MTD study; assay type: in vivo; conditions: for Average Compound 1 Concentration in Dog Plasma: N = 2
Procedure: Using a pyramiding dose schedule, dose levels of 250, 350 and 500 mg/kg were administered to 2 dogs/sex (after a washout period of at least three days, the same animals were dosed with the next dose level). The dose volume was 10 mL/kg body weight. The vehicle was 0.5% aqueous HPMC.

[2] = solubility in organic/aqueous solvents; assay type: physicochemical
[3] = effect of food on oral bioavailability in rats; assay type: in vivo, rat
Procedure: The effect of food on oral bioavailability was determined.

[4] = stability in plasma; assay type: in vitro ADME; conditions: rat plasma
[5] = molecular target: T1, OATP1B1 (Homo sapiens, UniProt Q9Y6L6); assay: transporter inhibition, HEK293 cells, probe accumulation; assay type: in vitro ADME
T1 construct: expressed in transfected cells; host or cells: HEK293 cells
T1 sequence (Q9Y6L6 1-691): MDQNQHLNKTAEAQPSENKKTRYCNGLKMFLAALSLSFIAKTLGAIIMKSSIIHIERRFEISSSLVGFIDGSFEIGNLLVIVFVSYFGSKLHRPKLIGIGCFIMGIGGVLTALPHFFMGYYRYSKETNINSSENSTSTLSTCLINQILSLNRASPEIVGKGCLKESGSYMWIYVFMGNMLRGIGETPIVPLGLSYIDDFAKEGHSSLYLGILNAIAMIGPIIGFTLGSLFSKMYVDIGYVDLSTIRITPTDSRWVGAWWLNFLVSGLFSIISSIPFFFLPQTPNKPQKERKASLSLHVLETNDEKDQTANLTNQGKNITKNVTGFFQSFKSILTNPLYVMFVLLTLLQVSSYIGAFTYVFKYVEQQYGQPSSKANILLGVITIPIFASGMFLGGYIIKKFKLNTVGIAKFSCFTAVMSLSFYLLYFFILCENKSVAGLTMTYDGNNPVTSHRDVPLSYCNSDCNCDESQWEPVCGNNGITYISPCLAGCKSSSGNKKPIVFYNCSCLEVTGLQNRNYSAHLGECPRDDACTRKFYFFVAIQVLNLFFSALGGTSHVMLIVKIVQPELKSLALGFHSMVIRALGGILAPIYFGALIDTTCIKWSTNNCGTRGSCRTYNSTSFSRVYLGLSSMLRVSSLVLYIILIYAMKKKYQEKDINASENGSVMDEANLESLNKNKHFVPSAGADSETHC

[6] = system: incision-induced hyperalgesia; assay: mouse incisional model (mimicking the Brennan protocol); assay type: in vivo; conditions: 10 mg/kg IP QD, Days 1 and 3 after incision
Procedure: In a mouse incisional model (mimicking the Brennan protocol), animals were baselined for mechanical thresholds prior to incision and then given a daily dose of Compound 1 (10 mg/kg IP QD) or vehicle for 7 days.

[7] = system: STZ-induced mechanical allodynia; assay: streptozotocin (STZ)-induced diabetic rats, first experiment; assay type: in vivo, rat
Procedure: FIG. 14 illustrates non-limiting reversal of mechanical hypersensitivity by Compound 1 in a diabetic neuropathy model, in accordance with various embodiments. Streptozotocin (STZ) destroys insulin-producing cells and generates a diabetic phenotype in […]. Animals were dosed with STZ on day −7. By day 0 animals are hyperglycemic and hyperalgesic (day 0 BL).
Experiments were conducted to determine the effect of Compound 1 in streptozotocin (STZ)-induced diabetic rats. In the first experiment, after obtaining mechanical threshold baselines, STZ (50 mg/kg IV) was administered (Day −7). Two days later, blood glucose levels were measured and animals that were hyperglycemic (>250 mg/dL) continued in the study. On Day 0 the baseline for mechanical thresholds prior to dosing with test articles was established for the rats. Compound 1 (10, 30, and 100 mg/kg PO), gabapentin (100 mg/kg PO) or vehicle was then administered daily for 5 days. On Day 0 mechanical thresholds were obtained at 1, 3, and 6 h post-dose. On Day 1 mechanical thresholds were measured immediately prior to dosing and then 3 h post-dose. The same regimen was followed on Day 3.

[8] = molecular target: T2, OAT1 (Homo sapiens, UniProt Q4U2R8); assay: transporter inhibition, HEK293 cells, probe accumulation; assay type: in vitro ADME
T2 construct: expressed in transfected cells; host or cells: HEK293 cells
T2 sequence (Q4U2R8 1-563): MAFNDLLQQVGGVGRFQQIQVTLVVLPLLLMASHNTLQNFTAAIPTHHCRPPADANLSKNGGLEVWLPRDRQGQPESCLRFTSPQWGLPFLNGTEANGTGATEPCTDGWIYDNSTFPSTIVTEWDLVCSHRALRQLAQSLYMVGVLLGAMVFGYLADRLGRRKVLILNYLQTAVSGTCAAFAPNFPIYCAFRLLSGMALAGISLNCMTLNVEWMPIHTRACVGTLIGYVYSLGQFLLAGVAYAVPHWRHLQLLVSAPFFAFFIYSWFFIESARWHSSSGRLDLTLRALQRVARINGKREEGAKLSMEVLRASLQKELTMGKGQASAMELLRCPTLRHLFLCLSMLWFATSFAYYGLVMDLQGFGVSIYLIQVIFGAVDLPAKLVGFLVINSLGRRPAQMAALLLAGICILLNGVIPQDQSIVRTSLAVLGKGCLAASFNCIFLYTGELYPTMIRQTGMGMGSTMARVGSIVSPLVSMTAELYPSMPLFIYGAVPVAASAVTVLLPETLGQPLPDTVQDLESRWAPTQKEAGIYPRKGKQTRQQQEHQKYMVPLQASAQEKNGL

[9] = rat single dose excretion/metabolite study (urine and feces); assay type: in vivo
Excerpt: Further metabolism work in additional species will be undertaken.

CC1(C)SC(Nc2ccccc2O)=N[C@@H]1C(=O)O.Cl [Compound 1, (R)-2-(2-hydroxyphenylamino)-5,5-dimethyl-4,5-dihydrothiazole-4-carboxylic acid mono-hydrochloride]
Average Compound 1 Concentration in Dog Plasma ([1]; 250 mg/kg PO (Dose 1; Day 1), 0.5 h, F): 28 µg/mL | Average Compound 1 Concentration in Dog Plasma ([1]; 250 mg/kg PO (Dose 1; Day 1), 0.5 h, M): 71 µg/mL | Average Compound 1 Concentration in Dog Plasma ([1]; 250 mg/kg PO (Dose 1; Day 1), 1 h, F): 54 µg/mL | Average Compound 1 Concentration in Dog Plasma ([1]; 250 mg/kg PO (Dose 1; Day 1), 1 h, M): 110 µg/mL | Average Compound 1 Concentration in Dog Plasma ([1]; 250 mg/kg PO (Dose 1; Day 1), 2 h, F): 46 µg/mL | Average Compound 1 Concentration in Dog Plasma ([1]; 250 mg/kg PO (Dose 1; Day 1), 2 h, M): 91 µg/mL | Average Compound 1 Concentration in Dog Plasma ([1]; 350 mg/kg PO (Dose 3; Day 9), 0.5 h, F): 67 µg/mL | Average Compound 1 Concentration in Dog Plasma ([1]; 350 mg/kg PO (Dose 3; Day 9), 0.5 h, M): 134 µg/mL | Average Compound 1 Concentration in Dog Plasma ([1]; 350 mg/kg PO (Dose 3; Day 9), 1 h, F): 154 µg/mL | Average Compound 1 Concentration in Dog Plasma ([1]; 350 mg/kg PO (Dose 3; Day 9), 1 h, M): 220 µg/mL | Average Compound 1 Concentration in Dog Plasma ([1]; 350 mg/kg PO (Dose 3; Day 9), 2 h, F): 119 µg/mL | Average Compound 1 Concentration in Dog Plasma ([1]; 350 mg/kg PO (Dose 3; Day 9), 2 h, M): 153 µg/mL | Average Compound 1 Concentration in Dog Plasma ([1]; 500 mg/kg PO (Dose 2; Day 4), 0.5 h, F): 87 µg/mL | Average Compound 1 Concentration in Dog Plasma ([1]; 500 mg/kg PO (Dose 2; Day 4), 0.5 h, M): 111 µg/mL | Average Compound 1 Concentration in Dog Plasma ([1]; 500 mg/kg PO (Dose 2; Day 4), 1 h, F): 136 µg/mL | Average Compound 1 Concentration in Dog Plasma ([1]; 500 mg/kg PO (Dose 2; Day 4), 1 h, M): 191 µg/mL | Average Compound 1 Concentration in Dog Plasma ([1]; 500 mg/kg PO (Dose 2; Day 4), 2 h, F): 124 µg/mL | Average Compound 1 Concentration in Dog Plasma ([1]; 500 mg/kg PO (Dose 2; Day 4), 2 h, M): 193 µg/mL | tolerability ([1]; dogs, single oral (gavage) dose of 500 mg/kg, emesis in three of the four dosed animals): not tolerated | solubility ([2]; in 2-propanol, ethanol, 10% water: isopropyl acetate, 10% water/tetrahydrofuran, and water): sparingly soluble | solubility ([2]; in methanol and tert-butyl alcohol: water (1:1)): freely soluble | solubility ([2]; in n-heptane, toluene, acetone, tetrahydrofuran, ethyl acetate, isopropyl acetate, t-butyl methyl ether, t-butyl alcohol): less than sparingly soluble | peak plasma concentrations, fasted compared to fed ([3]; 10 mg/kg oral): significantly increased peak plasma concentrations | differences in pharmacokinetic properties, fed vs fasted ([3]; 100 mg/kg oral): No statistically significant differences | stability in plasma [4]: stable | inhibition [5]: does not inhibit | hyperalgesia (mechanical thresholds) [6]: not hyperalgesic | reversal of allodynia (mechanical thresholds) ([7]; 10, 30, 100 mg/kg PO daily, subsequent days): statistically-significant | reversal of allodynia (mechanical thresholds) ([7]; 10, 30, 100 mg/kg PO, Day 0): non-significant reversal of allodynia | efficacy compared with gabapentin ([7]; repeated dosing, gabapentin 100 mg/kg PO, mono-hydrochloride): comparable to gabapentin | effect on allodynia, STZ diabetic neuropathy model (summary) ([7]; streptozotocin-induced, mono-hydrochloride): alleviates allodynia; also recorded: blocks STZ-induced mechanical allodynia | inhibition [8]: does not inhibit | administered compound recovered unchanged ([9]; rat single dose, urine and feces): 5-15% | form excreted in urine and feces ([9]; rats): primarily as a sulfate conjugate
